From patent publication US20100069498A1 (ESSENTYS AB, priority 2003, published 2010)
Values joined by “and” are separate entries in the source; they are usually repeats but may differ in a detail not shown here. Identical values can stand only once.

Tests used:
[1] = Mean luminal disappearance of a duodenal AKG bolus; format: in vivo, pigs; settings: duodenal bolus 1040 μmol/kg
Experimental: After 1 h, pigs were sacrificed.
The small intestine was carefully clamped at the proximal duodenum and distal ileum, removed and flushed with 2×50 mL of saline to wash the intestine.

[2] = remark: listed apart in the source
From the text: Female piglets (n=9) were purchased from the Texas Department of Criminal Justice, Huntsville, Tex.
Pigs (14 d of age) arrived at the Children's Nutrition Research Center and for a 7-day adjustment period were fed a liquid milk replacer diet (Litter Life, Merrick, Middleton, Wis.) at a rate of 50 g/(kg·d).
Briefly, under isoflurane anesthesia and aseptic conditions, the piglets were implanted with a polyethylene catheter (o.d., 1.27 mm, Becton Dickinson, Sparks, Md.) in the common portal vein, and silastic catheters (o.d., 1.78 mm) in an external jugular vein and a carotid artery.
An ultrasonic flow probe (8 to 10 mm i.d., Transonic, Ithaca, N.Y.) was placed around the portal vein.
A silicone catheter (o.d., 2.17 mm, Baxter Healthcare, McGaw Park, Ill.) was implanted into the lumen of the duodenum. The catheters were filled with sterile saline containing heparin (2.5×10^4 U/L), and exteriorized on either the left flank (portal and duodenal catheters, flow probe leads) or between the scapulae (jugular and carotid catheters).
For plasma amino acid analysis, a 0.2 mL aliquot of plasma was mixed with an equal volume of an aqueous solution of methionine sulfone (4 mmol/L) and centrifuged at 10,000×g for 120 min through a 10-kDa cutoff filter.
A 50 μL aliquot of the filtrate was dried and the amino acids were analyzed by reverse-phase HPLC of their phenylisothiocyanate derivatives (Pico Tag, Waters, Woburn, Mass.).
Plasma ammonia was determined using a spectrophotometric assay kit (171-C, Sigma-Aldrich, St. Louis, Mo.).
Plasma glucose was determined using a spectrophotometric assay kit (315-100; Sigma-Aldrich, St. Louis, Mo.).
Net portal balance of metabolites [μmol/(kg·h)] was calculated as follows:
(Conc.PORT−Conc.ART)×PBF (1)
when Conc. is the concentration in the blood (μmol/L), PORT and ART refer to portal and arterial blood and PBF is portal blood flow [L/(kg·h)].
Piglets were deprived of food for 15 h before initiation of the experiment.
On the day of the experiment, at time −1 h, a primed (7.75 mL/kg; 25% wt/wt aqueous solution; oral), continuous duodenal infusion of milk replacer [Litter Life, Merrick, Middleton, Wis.; 7.75 mL/(kg·h)] prepared as a 25% (wt/wt) aqueous solution which provided ˜920 kJ and 12.5 g protein/(kg·d).

[3] = AKG infusion 930 μmol/(kg·h), P<0.01
[4] = AKG treatment, P<0.05, data not shown
[5] = piglets, duodenal infusion 930 μmol/(kg·h) AKG (3.75% of diet dry matter), ± SEM
[6] = pigs, duodenal infusion 930 μmol/(kg·h) AKG, n = 5
[7] = pigs, duodenal infusion 930 μmol/(kg·h) AKG, n = 5, LSMean ± SEM

SMILES: O=C(O)CCC(=O)C(=O)O [AKG, alpha-ketoglutaric acid]
- Share of the AKG bolus disappeared from the lumen of the duodenum ([1]; 1 h): approximately 64%
- Luminal disappearance as share of the 1040 μmol/kg of infused AKG ([1]; pigs, one hour): 63.8
- Effect on production of CO2 in the whole body (AKG infusion): did not increase
- Effect on NOLD (non-oxidative leucine disposal) vs control (AKG treatment, FIG. 1): not affected
- Effect on Ra (leucine appearance rate) vs control (AKG treatment, FIG. 1): not affected
- Effect on whole-body leucine oxidation vs control (AKG treatment, FIG. 1): not affected
- Effect on net portal appearance of glutamate ([2]; AKG infusion): not affected
- Effect on net portal appearance of glutamine ([2]; AKG infusion): not affected
- Effect on net portal balance of AKG vs control ([2]; AKG infusion 930 μmol/(kg·h)): increased
- Effect on arterial AKG concentration vs control [2, 3]: increased
- Effect on portal AKG concentration vs control [2, 3]: increased
- Increase in proline net portal balance ([2]; AKG treated pigs vs control): 138.1 µmol/kg/h
- Effect on ammonia net portal balance vs control ([2]; AKG treatment, duodenal infusion): not affected
- Effect on net portal balance of glucose vs control ([2]; AKG treatment, duodenal infusion, P<0.05): decreased
- Effect on portal mass balance of leucine vs control ([2]; AKG treatment, P<0.05): increased
- Effect on portal mass balance of lysine vs control ([2]; AKG treatment, P<0.05): increased
- Effect on portal mass balance of proline vs control ([2]; AKG treatment, P<0.05): increased
- Effect on arterial concentration of proline vs control [2, 4]: increased
- Effect on portal concentration of proline vs control [2, 4]: increased
- Effect on portal mass balance of isoleucine vs control ([2]; AKG treatment, P<0.10): tended (P<0.10) to increase
- Effect on portal leucine concentration vs control ([2]; AKG treatment, data not shown): tended (P<0.01) to be increased
- AKG unaccounted for in the portal balance ([2]; duodenal infusion 930 μmol/(kg·h) AKG): over 800 μmol/(kg·h)
- AKG net portal balance, % of infused ([2]; piglets, duodenal infusion 930 μmol/(kg·h) AKG): 10.23 % of infused and 10 % of infused and 10.23 ± 0.57 % of infused
- AKG net portal balance [2, 5]: 95 µmol/kg/h and 95.2 ± 12 µmol/kg/h
- Ammonia net portal balance [2, 5]: 561.1 ± 53 µmol/kg/h
- Arterial AKG [2, 5]: 27.4 ± 3.6 µmol/L
- Glucose net portal balance [2, 5]: 203.9 ± 69 mg/(kg · h)
- Portal AKG [2, 5]: 64.6 ± 5.9 µmol/L
- Net portal balance of Alanine, % of Intake [2, 6]: 189.0 % of Intake
- Net portal balance of Arginine, % of Intake [2, 6]: 98.3 % of Intake
- Net portal balance of Aspartate, % of Intake [2, 6]: 9.6 % of Intake
- Net portal balance of Glutamate, % of Intake [2, 6]: 18.6 % of Intake
- Net portal balance of Glycine, % of Intake [2, 6]: 116.0 % of Intake
- Net portal balance of Histidine, % of Intake [2, 6]: 71.4 % of Intake
- Net portal balance of Isoleucine, % of Intake [2, 6]: 140.0 % of Intake
- Net portal balance of Leucine, % of Intake [2, 6]: 113.4 % of Intake
- Net portal balance of Lysine, % of Intake [2, 6]: 98.8 % of Intake
- Net portal balance of Phenylalanine, % of Intake [2, 6]: 98.7 % of Intake
- Net portal balance of Proline, % of Intake [2, 6]: 114.5 % of Intake
- Net portal balance of Serine, % of Intake [2, 6]: 108.3 % of Intake
- Net portal balance of Threonine, % of Intake [2, 6]: 75.7 % of Intake
- Net portal balance of Tyrosine, % of Intake [2, 6]: 135.9 % of Intake
- Net portal balance of Valine, % of Intake [2, 6]: 108.9 % of Intake
- Net portal balance of Alanine [2, 7]: 557.8 ± 48 µmol/kg/h
- Net portal balance of Arginine [2, 7]: 109.0 ± 19 µmol/kg/h
- Net portal balance of Asparagine [2, 7]: 185.6 ± 18 µmol/kg/h
- Net portal balance of Aspartate [2, 7]: 29.7 ± 6.0 µmol/kg/h
- Net portal balance of Glutamate [2, 7]: 80.1 ± 17 µmol/kg/h
- Net portal balance of Glutamine [2, 7]: 25.5 ± 45 µmol/kg/h
- Net portal balance of Glycine [2, 7]: 177.2 ± 20 µmol/kg/h
- Net portal balance of Histidine [2, 7]: 45.9 ± 3.8 µmol/kg/h
- Net portal balance of Phenylalanine [2, 7]: 95.2 ± 11 µmol/kg/h
- Net portal balance of Serine [2, 7]: 244.7 ± 64 µmol/kg/h
- Net portal balance of Threonine [2, 7]: 210.9 ± 18 µmol/kg/h
- Net portal balance of Tryptophan [2, 7]: 47.2 ± 4.3 µmol/kg/h
- Net portal balance of Tyrosine [2, 7]: 115.8 ± 17 µmol/kg/h
- Net portal balance of Valine [2, 7]: 279.3 ± 32 µmol/kg/h
